Source: publication PMC8001783, “New Lignanamides with Antioxidant and Anti-Inflammatory Activities Screened Out and Identified from Warburgia ugandensis Combining Affinity Ultrafiltration LC-MS with SOD and XOD Enzymes” (Antioxidants, 2021)
Marks after values point to notes of the source that are not given here.

Assays:
xanthine oxidase (XOD) = assay: Affinity ultrafiltration LC-MS/MS with XOD (relative binding affinity); design: key: -: No binding affinity; details: peaks of WUE-A4, XOD 2 U, 37 °C 1 h, n = 3
Experimental: The experimental conditions were proposed according to previous relevant studies. Briefly, the optimized experiment was composed of three steps. Incubation was the first step, where 100 μL WUE-A4 (10.0 mg/mL), 10 µL SOD (2 U) or XOD (2 U), and 90 µL Tris-HCl (pH = 7.8) were mixed well in 1.5 mL EP tubes, and then incubated at 37 °C in the dark for 1 h. Meanwhile, the incubation operations of inactivated enzymes (inactivated enzymes were obtained by heating enzymes in a 99 °C water bath for 10 min) were the same as the active enzymes. Adsorption was the second step, where the incubated solutions were transferred to ultrafiltration tubes with 30 KDa (for SOD) or 10 KDa (for XOD) ultrafiltration membranes and then centrifuged at 10,000 rpm for 10 min at 25 °C. Simultaneously, components which had no binding affinity to enzymes were washed out. Immediately, 300 µL of Tris-HCl solution (pH = 7.8) was added to the ultrafiltration tubes and centrifuged at 10,000 rpm for 5 min at 25 °C to remove the potential unbound components. Desorption was the third step, where 300 µL of 90% (v/v) MeOH-H2O was added and incubated for 10 min at room temperature, and the mixed solutions were centrifuged at 10,000 rpm for another 10 min at 25 °C. After that, the desorption process was repeated two times to release those components with specific bindings to SOD or XOD from the enzyme-ligand complexes. Finally, those ultrafiltrates were dried and reconstituted in 50 µL MeOH for the HPLC-UV/ESI-MS/MS analysis.
HPLC-UV/ESI-MS/MS was carried out to characterize the components in WUE-A4 before and after ultrafiltration by using a Thermo Accela 600 series HPLC connected with a TSQ Quantum Access MAX mass spectrometer (Thermo Fisher Scientific, San Jose, CA, USA). A Waters Symmetry RP-C18 column (4.6 × 250 mm, 5 µm) was used to perform chromatographic analysis at 30 °C, and the mobile phase consisted of H2O with 0.1% formic acid (A) and ACN (B). The optimized HPLC elution procedures were as follows: 0–15 min, 17% B; 15–40 min, 17–30% B, 40–42 min: 30–56% B. The flow rate was 0.8 mL/min, the injection volume was 10 µL, and the HPLC-UV chromatograms were detected at a wavelength of 254 nm. The negative ion modes were applied to obtained ESI-MS/MS data. Moreover, the parameters of instrument were set as follows: the vaporizer temperature was 350 °C, the capillary temperature was 250 °C, the spray voltage was 3000 V, the cone voltage energy was 40 V, the collision energy was 10 V, the sheath gas pressure was 40 psi, the aux gas pressure was 10 psi, the drying gas flow rate was 6.0 L/min, and the mass range was set from 50 to 1100 (m/z) in the full-scan mode. Finally, the Thermo Xcalibur ChemStation (Thermo Fisher Scientific) was used for data acquisition and analysis.
For further evaluation of the affinity binding strength between the potential ligands and the target enzymes, the relative binding affinity (RBA) was employed to compare the variation of the correlated peak areas in the UF-HPLC-UV chromatograms before and after activation. The RBA formula is expressed as RBA = Aactive/Ainactivated, where the Aactive and Ainactivated represent the peak areas obtained from the WUE-A4 samples with activated and inactivated SOD or XOD, respectively.

COX-2 (human) = target: T1, COX-2 (human) (Homo sapiens, UniProt P35354); assay: In vitro COX-2 inhibitory assay (COX-2 (human) inhibitor screening kit); format: biochemical; details: for COX-2 inhibitory activity compared with the positive control indomethacin: in words, Figure 7; for IC50: fluorescence, ex 560 nm / em 590 nm, triplicate
T1 construct: purchased Beyotime Biotechnology (Shanghai, China) S0168
T1 sequence (P35354 18-604): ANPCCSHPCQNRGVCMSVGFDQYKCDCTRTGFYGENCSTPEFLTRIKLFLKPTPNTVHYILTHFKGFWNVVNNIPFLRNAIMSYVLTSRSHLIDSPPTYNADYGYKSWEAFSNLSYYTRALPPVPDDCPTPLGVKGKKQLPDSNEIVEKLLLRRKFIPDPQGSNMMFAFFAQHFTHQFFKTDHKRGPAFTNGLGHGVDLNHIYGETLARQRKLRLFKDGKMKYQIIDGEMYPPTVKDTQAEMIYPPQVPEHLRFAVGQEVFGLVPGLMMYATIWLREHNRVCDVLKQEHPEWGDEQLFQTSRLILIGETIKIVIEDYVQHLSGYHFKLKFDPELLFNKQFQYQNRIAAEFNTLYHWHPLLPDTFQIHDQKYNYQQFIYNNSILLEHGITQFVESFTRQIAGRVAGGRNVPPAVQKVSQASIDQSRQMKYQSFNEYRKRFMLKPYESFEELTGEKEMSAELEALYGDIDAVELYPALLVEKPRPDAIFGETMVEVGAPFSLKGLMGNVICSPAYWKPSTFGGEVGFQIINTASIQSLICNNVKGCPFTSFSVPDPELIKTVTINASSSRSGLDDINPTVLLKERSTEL
Experimental: Firstly, samples were dissolved in DMSO, and prepared into a series of solutions with different concentrations. COX-2 cofactor working solution, COX-2 working solution, COX-2 probe, and COX-2 substrate were prepared according to manufacturer’s instructions, and then diluted 10 times with COX-2 assay buffer, respectively. Secondly, 150 µL Tris-HCl (pH = 7.8), 10 µL COX-2 cofactor working solution, 10 µL COX-2 working solution, and 10 µL sample solution were sequentially added in the 96-well black plates, mixed and incubated at 37 °C for 10 min. The COX-2 working solution of the blank control group was replaced with an equal volume of COX-2 assay buffer, and the sample was replaced with an equal volume of DMSO; the sample of the 100% enzyme activity control group was replaced with an equal volume of DMSO. Thirdly, 10 µL COX-2 probe was added into each well. Finally, 10 µL of COX-2 substrate was quickly added into each well, and incubated at 37 °C in the darkness for 5 min, and followed by the fluorescence measurement. The excitation and emission wavelengths were 560 nm and 590 nm, respectively. […] The experiments were performed in triplicate. The COX-2 inhibitory activity was expressed as IC50. The inhibition of COX-2 was calculated according to the following formula:COX-2 inhibitory activity (%) = (RFU100%Enzyme − RFUSample)/ (RFU100%Enzyme − RFUBlank) × 100,(3) where COX-2 inhibitory activity (%) was plotted against the concentration of samples to acquire the IC50. RFU100%Enzyme, relative fluorescence unit of 100% enzyme control group; RFUSample, relative fluorescence unit of sample; RFUBlank, relative fluorescence unit of blank group.

[1] = test system: LPS-induced NO production in RAW 264.7 macrophages; design: method as in doi:10.5012/bkcs.2013.34.10.3105, PMID 29177586, PMID 31888376; details: cited from earlier work

| Molecule | UF-RBA XOD (relative binding affinity = Aactive/Ainactivated) (xanthine oxidase (XOD)) | UF-RBA XOD (relative binding affinity = Aactive/Ainactivated) (xanthine oxidase (XOD); listed as peak 11) | COX-2 inhibitory activity compared with the positive control indomethacin (COX-2 (human)) | IC50 (COX-2 (human)) [nM] | UF-RBA XOD (relative binding affinity = Aactive/Ainactivated) (xanthine oxidase (XOD); listed as peak 14) | inhibitory effect against LPS-induced NO production [1] |
| --- | --- | --- | --- | --- | --- | --- |
| 1-(3,4-dihydroxy-5-methoxyphenyl)-1,2-dihydroxy-7,8-dihydroxy-N-[(3,4-dihydroxyphenyl)-ethyl]-N′-[(4-hydroxyphenyl)-ethyl]-6-methoxynaphthalene-2,3-dicarboxamide [compound 11] | - | extremely low or no binding affinities | almost the same inhibitory activities |  |  |  |
| C[C@@H]1O[C@@H](O[C@@H]2[C@@H](O)[C@H](O)[C@@H](CO)O[C@H]2c2cc(-c3cc(=O)c4c(O)cc(O)cc4o3)cc(O)c2O)[C@H](O)[C@H](O)[C@H]1O [compound 1, 2-[3-[2-O-(6-deoxy-α-L-mannopyranosyl)-β-D-glucopyranosyl]-4,5-dihydroxyphenyl]-5,7-dihydroxy-4H-1-benzopyran-4-one] | 1.2 ± 0.6 ^c,d |  | almost the same inhibitory activities |  |  |  |
| O=C(/C=C/c1ccc(O)c(O)c1)NCCc1ccc(O)cc1 [compound 7, N-trans-caffeoyltyramine] | 1.1 ± 0.3 ^c,d |  | almost the same inhibitory activities |  |  | good inhibitory effects |

The next lines start with results.

| UF-RBA XOD (relative binding affinity = Aactive/Ainactivated) (xanthine oxidase (XOD)) | UF-RBA XOD (relative binding affinity = Aactive/Ainactivated) (xanthine oxidase (XOD); listed as peak 11) | COX-2 inhibitory activity compared with the positive control indomethacin (COX-2 (human)) | IC50 (COX-2 (human)) [nM] | UF-RBA XOD (relative binding affinity = Aactive/Ainactivated) (xanthine oxidase (XOD); listed as peak 14) | Molecule | inhibitory effect against LPS-induced NO production [1] |
| --- | --- | --- | --- | --- | --- | --- |
| 1.3 ± 0.2 ^c,d |  |  | 713 ± 322 |  | COc1cc(C2c3c(cc(OC)c(O)c3O)C=C(C(=O)NCCc3ccc(O)cc3)C2C(=O)NCCc2ccc(O)cc2)cc(O)c1O (stereo not shown) [compound 13] |  |
| 3.8 ± 0.5 ^a |  |  | 123 ± 4 | 3.76 | COc1cc(C2c3c(cc(O)c(O)c3OC)C=C(C(=O)NCCc3ccc(O)cc3)C2C(=O)NCCc2ccc(O)cc2)cc(O)c1O (stereo not shown) [compound 14] |  |
